ChEMBL document CHEMBL4507301 (2021)

Experiments:
[1] = test system: Epidermal growth factor receptor (Homo sapiens), P00533 [UNDEFINED MUTATION]; settings: Compound concentration 1000.0 nM
[2] = target: Ribosomal protein S6 kinase alpha-4 (Homo sapiens) (UniProt O75676); settings: Compound concentration 1000.0 nM
[3] = target: Myosin light chain kinase (Homo sapiens) (UniProt Q32MK0); settings: Compound concentration 1000.0 nM
[4] = target: Phosphatidylinositol 4-phosphate 3-kinase C2 domain-containing subunit beta (Homo sapiens) (UniProt O00750); settings: Compound concentration 1000.0 nM
[5] = target: High affinity nerve growth factor receptor (Homo sapiens) (UniProt P04629); settings: Compound concentration 1000.0 nM
[6] = target: Serine/threonine-protein kinase haspin (Homo sapiens) (UniProt Q8TF76); settings: Compound concentration 1000.0 nM
[7] = target: Phosphatidylinositol 3-kinase catalytic subunit type 3 (Homo sapiens) (UniProt Q8NEB9); settings: Compound concentration 1000.0 nM
[8] = target: Inhibitor of nuclear factor kappa-B kinase subunit epsilon (Homo sapiens) (UniProt Q14164); settings: Compound concentration 1000.0 nM
[9] = target: Activin receptor type-1B (Homo sapiens) (UniProt P36896); settings: Compound concentration 1000.0 nM
Activin receptor type-1B (Homo sapiens), sequence (P36896 whole entry): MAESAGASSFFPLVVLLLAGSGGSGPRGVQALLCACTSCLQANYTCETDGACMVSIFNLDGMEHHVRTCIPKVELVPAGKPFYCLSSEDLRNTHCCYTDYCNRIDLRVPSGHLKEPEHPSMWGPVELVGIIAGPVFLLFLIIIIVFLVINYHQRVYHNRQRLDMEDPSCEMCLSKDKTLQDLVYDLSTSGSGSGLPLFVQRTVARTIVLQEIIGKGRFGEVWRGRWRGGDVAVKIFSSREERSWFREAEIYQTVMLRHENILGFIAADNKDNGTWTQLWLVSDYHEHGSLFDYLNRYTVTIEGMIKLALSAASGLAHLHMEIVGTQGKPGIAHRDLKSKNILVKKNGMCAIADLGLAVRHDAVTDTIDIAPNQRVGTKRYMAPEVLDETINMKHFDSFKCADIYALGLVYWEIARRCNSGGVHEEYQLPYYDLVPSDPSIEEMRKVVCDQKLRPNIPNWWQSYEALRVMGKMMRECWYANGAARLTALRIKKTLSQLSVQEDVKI

[10] = target: Cyclin-dependent kinase 4 (Homo sapiens) (UniProt P11802); settings: Compound concentration 1000.0 nM
Cyclin-dependent kinase 4 (Homo sapiens), sequence (P11802 whole entry): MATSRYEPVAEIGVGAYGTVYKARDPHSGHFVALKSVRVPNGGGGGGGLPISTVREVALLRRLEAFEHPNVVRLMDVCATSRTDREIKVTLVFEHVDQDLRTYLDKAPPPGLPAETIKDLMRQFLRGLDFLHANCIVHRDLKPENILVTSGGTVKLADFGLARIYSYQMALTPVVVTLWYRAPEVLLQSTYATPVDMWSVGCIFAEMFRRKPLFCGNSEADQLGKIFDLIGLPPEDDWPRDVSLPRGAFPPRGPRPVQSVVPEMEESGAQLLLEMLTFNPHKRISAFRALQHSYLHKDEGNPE

[11] = target: Misshapen-like kinase 1 (Homo sapiens) (UniProt Q8N4C8); settings: Compound concentration 1000.0 nM
[12] = target: MAP/microtubule affinity-regulating kinase 3 (Homo sapiens) (UniProt P27448); settings: Compound concentration 1000.0 nM
[13] = target: Proto-oncogene tyrosine-protein kinase receptor Ret (Homo sapiens) (UniProt P07949); settings: Compound concentration 1000.0 nM
[14] = target: Serine/threonine-protein kinase PRP4 homolog (Homo sapiens) (UniProt Q13523); settings: Compound concentration 1000.0 nM
[15] = target: Receptor-interacting serine/threonine-protein kinase 4 (Homo sapiens) (UniProt P57078); settings: Compound concentration 1000.0 nM
[16] = target: Inhibitor of nuclear factor kappa-B kinase subunit alpha (Homo sapiens) (UniProt O15111); settings: Compound concentration 1000.0 nM
[17] = target: Membrane-associated tyrosine- and threonine-specific cdc2-inhibitory kinase (Homo sapiens) (UniProt Q99640); settings: Compound concentration 1000.0 nM
[18] = target: Serine/threonine-protein kinase Nek7 (Homo sapiens) (UniProt Q8TDX7); settings: Compound concentration 1000.0 nM
[19] = target: Serine/threonine-protein kinase STK11 (Homo sapiens) (UniProt Q15831); settings: Compound concentration 1000.0 nM
[20] = target: Cyclin-dependent kinase 14 (Homo sapiens) (UniProt O94921); settings: Compound concentration 1000.0 nM
[21] = target: Serine/threonine-protein kinase NLK (Homo sapiens) (UniProt Q9UBE8); settings: Compound concentration 1000.0 nM
[22] = target: Mitogen-activated protein kinase kinase kinase 13 (Homo sapiens) (UniProt O43283); settings: Compound concentration 1000.0 nM
[23] = target: Transient receptor potential cation channel subfamily M member 6 (Homo sapiens) (UniProt Q9BX84); settings: Compound concentration 1000.0 nM
[24] = target: Macrophage colony-stimulating factor 1 receptor (Homo sapiens) (UniProt P07333); settings: Compound concentration 1000.0 nM
[25] = target: Phosphatidylinositol 5-phosphate 4-kinase type-2 beta (Homo sapiens) (UniProt P78356); settings: Compound concentration 1000.0 nM
[26] = target: Serine/threonine-protein kinase PAK 2 (Homo sapiens) (UniProt Q13177); settings: Compound concentration 1000.0 nM
[27] = test system: Epidermal growth factor receptor (Homo sapiens), P00533 [UNDEFINED MUTATION]; settings: Compound concentration 1000.0 nM; remark: listed apart in the source
[28] = target: Discoidin domain-containing receptor 2 (Homo sapiens) (UniProt Q16832); settings: Compound concentration 1000.0 nM
Discoidin domain-containing receptor 2 (Homo sapiens), sequence (Q16832 whole entry, the tested form may be a part): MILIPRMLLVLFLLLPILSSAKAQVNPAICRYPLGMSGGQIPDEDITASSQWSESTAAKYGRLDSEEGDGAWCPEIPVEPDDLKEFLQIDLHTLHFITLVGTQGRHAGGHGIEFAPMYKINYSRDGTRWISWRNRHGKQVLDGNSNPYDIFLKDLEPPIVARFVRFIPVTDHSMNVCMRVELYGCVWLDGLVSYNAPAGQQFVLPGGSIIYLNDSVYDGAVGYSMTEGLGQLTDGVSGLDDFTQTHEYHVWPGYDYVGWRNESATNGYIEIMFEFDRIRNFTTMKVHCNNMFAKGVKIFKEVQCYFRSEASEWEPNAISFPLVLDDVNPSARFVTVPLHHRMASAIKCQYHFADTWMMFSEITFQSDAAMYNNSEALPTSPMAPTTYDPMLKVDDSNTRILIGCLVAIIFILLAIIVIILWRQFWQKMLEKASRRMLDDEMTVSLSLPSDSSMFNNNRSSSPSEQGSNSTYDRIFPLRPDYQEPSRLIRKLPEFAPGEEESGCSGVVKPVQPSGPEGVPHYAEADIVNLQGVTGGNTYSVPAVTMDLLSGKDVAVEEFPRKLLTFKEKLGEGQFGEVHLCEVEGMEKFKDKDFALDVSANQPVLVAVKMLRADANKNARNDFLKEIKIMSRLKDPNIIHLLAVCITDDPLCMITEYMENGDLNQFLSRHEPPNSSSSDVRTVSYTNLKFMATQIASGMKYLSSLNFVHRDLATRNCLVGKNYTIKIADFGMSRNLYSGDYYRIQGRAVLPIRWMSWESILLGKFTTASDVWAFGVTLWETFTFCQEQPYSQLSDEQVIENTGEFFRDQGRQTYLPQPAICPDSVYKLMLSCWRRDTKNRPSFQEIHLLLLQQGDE

[29] = target: Cyclin-dependent kinase 7 (Homo sapiens) (UniProt P50613); settings: Compound concentration 1000.0 nM
[30] = target: Casein kinase II subunit alpha (Homo sapiens) (UniProt P68400); settings: Compound concentration 1000.0 nM
Casein kinase II subunit alpha (Homo sapiens), sequence (P68400 whole entry, looked up): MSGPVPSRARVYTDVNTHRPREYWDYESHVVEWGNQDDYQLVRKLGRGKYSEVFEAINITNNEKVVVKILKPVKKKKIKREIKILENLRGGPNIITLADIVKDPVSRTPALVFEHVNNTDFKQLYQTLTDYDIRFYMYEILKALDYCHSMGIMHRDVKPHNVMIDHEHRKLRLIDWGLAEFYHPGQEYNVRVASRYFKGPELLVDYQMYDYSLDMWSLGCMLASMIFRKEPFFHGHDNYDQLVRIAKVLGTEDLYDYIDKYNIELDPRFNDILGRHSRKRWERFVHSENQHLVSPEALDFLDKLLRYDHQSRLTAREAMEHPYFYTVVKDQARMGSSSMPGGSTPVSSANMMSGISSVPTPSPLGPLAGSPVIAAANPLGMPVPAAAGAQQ

[31] = target: MAP kinase-activated protein kinase 5 (Homo sapiens) (UniProt Q8IW41); settings: Compound concentration 1000.0 nM
[32] = target: Ephrin type-B receptor 2 (Homo sapiens) (UniProt P29323); settings: Compound concentration 1000.0 nM
Ephrin type-B receptor 2 (Homo sapiens), sequence (P29323 whole entry): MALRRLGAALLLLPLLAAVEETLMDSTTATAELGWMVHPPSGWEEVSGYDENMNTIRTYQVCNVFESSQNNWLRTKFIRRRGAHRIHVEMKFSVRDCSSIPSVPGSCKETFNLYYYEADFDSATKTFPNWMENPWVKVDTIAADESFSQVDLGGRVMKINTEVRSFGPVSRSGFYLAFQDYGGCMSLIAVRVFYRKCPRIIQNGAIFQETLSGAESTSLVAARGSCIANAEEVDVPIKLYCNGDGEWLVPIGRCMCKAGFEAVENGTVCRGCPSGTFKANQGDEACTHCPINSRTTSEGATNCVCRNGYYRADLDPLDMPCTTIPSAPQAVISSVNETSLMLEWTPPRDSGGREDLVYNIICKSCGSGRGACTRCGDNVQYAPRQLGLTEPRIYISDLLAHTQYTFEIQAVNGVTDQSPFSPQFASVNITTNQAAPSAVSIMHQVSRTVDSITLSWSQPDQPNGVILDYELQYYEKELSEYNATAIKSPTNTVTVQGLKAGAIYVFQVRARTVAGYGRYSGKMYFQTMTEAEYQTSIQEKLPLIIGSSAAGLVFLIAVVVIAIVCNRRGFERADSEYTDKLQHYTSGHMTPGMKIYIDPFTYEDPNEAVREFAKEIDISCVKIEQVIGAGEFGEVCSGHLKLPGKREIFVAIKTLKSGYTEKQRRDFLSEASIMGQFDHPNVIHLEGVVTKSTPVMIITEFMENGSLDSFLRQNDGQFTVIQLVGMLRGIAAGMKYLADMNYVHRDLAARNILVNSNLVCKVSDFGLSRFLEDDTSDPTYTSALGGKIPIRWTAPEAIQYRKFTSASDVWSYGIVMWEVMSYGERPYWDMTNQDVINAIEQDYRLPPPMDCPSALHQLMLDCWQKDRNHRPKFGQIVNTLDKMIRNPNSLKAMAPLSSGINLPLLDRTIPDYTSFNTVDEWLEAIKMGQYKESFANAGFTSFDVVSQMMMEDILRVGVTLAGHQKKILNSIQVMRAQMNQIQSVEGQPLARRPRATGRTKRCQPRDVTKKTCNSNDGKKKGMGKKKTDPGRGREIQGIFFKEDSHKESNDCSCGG

[33] = target: Protein kinase C epsilon type (Homo sapiens) (UniProt Q02156); settings: Compound concentration 1000.0 nM
Protein kinase C epsilon type (Homo sapiens), sequence (Q02156 whole entry): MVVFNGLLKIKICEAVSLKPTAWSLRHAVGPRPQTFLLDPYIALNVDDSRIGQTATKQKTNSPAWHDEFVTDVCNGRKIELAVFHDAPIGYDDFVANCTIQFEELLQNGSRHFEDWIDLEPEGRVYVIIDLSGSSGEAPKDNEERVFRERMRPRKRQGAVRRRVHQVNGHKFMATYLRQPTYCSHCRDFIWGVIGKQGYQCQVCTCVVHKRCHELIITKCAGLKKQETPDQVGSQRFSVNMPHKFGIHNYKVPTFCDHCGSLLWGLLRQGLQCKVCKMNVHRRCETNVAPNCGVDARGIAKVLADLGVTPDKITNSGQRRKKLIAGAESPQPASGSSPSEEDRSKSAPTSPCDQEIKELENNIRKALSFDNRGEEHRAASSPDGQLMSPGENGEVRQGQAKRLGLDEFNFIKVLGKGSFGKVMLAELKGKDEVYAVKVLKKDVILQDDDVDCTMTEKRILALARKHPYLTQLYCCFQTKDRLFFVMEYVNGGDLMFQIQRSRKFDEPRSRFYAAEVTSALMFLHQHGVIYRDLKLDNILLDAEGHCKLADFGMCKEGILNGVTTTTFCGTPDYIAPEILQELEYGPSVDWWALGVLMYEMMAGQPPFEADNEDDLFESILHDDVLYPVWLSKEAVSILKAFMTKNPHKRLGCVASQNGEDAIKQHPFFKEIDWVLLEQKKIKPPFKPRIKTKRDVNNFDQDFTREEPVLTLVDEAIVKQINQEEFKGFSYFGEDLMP

[34] = target: Sigma non-opioid intracellular receptor 1 (Homo sapiens) (UniProt Q99720); settings: Compound concentration 10.0 uM
[35] = target: Myotonin-protein kinase (Homo sapiens) (UniProt Q09013); settings: Compound concentration 1000.0 nM
[36] = target: Vascular endothelial growth factor receptor 3 (Homo sapiens) (UniProt P35916); settings: Compound concentration 1000.0 nM
[37] = target: Tyrosine-protein kinase Fyn (Homo sapiens) (UniProt P06241); settings: Compound concentration 1000.0 nM
[38] = target: BMP-2-inducible protein kinase (Homo sapiens) (UniProt Q9NSY1); settings: Compound concentration 1000.0 nM
[39] = target: cGMP-dependent protein kinase 2 (Homo sapiens) (UniProt Q13237); settings: Compound concentration 1000.0 nM
[40] = target: Ephrin type-A receptor 8 (Homo sapiens) (UniProt P29322); settings: Compound concentration 1000.0 nM
[41] = target: Histamine H1 receptor (Homo sapiens) (UniProt P35367); settings: Compound concentration 10.0 uM
[42] = target: Phosphatidylinositol 4-kinase beta (Homo sapiens) (UniProt Q9UBF8); settings: Compound concentration 1000.0 nM
[43] = target: Tyrosine-protein kinase HCK (Homo sapiens) (UniProt P08631); settings: Compound concentration 1000.0 nM
[44] = target: Focal adhesion kinase 1 (Homo sapiens) (UniProt Q05397); settings: Compound concentration 1000.0 nM
[45] = target: Kappa-type opioid receptor (Homo sapiens) (UniProt P41145); settings: Compound concentration 10.0 uM

Epidermal growth factor receptor (Homo sapiens), P00533 [UNDEFINED MUTATION], sequence (P00533 whole entry, looked up, change not shown, the tested form may be a part): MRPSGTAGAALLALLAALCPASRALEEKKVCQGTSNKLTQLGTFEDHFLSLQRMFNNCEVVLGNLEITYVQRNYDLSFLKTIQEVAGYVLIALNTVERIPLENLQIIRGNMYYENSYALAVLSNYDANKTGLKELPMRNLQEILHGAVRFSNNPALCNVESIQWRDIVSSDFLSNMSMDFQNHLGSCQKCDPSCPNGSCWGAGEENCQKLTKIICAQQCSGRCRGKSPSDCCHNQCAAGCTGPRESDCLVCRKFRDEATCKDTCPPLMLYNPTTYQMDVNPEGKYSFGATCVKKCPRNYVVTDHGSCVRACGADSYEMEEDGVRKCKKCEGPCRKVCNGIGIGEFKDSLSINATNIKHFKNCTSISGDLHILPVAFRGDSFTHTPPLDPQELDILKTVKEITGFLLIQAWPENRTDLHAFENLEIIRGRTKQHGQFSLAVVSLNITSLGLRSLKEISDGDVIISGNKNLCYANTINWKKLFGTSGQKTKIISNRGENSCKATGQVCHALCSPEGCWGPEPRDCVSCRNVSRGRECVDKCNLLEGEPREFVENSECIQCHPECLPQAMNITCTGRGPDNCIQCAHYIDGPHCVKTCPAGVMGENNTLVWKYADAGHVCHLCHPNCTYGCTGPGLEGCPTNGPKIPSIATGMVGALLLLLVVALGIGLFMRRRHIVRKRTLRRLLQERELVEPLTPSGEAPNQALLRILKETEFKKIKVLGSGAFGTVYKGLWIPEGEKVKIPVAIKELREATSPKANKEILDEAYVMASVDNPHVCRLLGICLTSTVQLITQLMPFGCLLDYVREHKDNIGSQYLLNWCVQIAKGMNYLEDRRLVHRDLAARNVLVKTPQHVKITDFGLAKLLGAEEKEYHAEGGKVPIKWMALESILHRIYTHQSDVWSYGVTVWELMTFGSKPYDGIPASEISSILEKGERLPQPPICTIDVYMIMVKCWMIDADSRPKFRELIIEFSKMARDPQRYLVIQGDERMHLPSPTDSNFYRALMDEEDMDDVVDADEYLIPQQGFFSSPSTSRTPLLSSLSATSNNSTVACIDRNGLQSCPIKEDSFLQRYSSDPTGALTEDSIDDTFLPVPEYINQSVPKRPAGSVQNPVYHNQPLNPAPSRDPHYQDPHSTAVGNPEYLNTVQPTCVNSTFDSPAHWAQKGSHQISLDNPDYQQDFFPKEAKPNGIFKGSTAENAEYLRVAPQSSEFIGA

Q: With C[C@H](c1cccc(C#N)c1)n1cc(Cl)cc(C(N)=O)c1=N [(R)-9s] as the molecule, how does the residual activity [1] read?
A: 100%

Q: And the residual activity [2]?
A: 100%

Q: What about the residual activity [3] of the same molecule?
A: 94%

Q: What about the residual activity [4] of the same molecule?
A: 100%

Q: What about the residual activity [5] of the same molecule?
A: 100%

Q: And the residual activity [6]?
A: 91%

Q: What about the residual activity [7] of the same molecule?
A: 78%

Q: And the residual activity [8]?
A: 82%

Q: What about the residual activity [9] of the same molecule?
A: 100%

Q: And the residual activity [10]?
A: 97%

Q: What about the residual activity [11] of the same molecule?
A: 88%

Q: And the residual activity [12]?
A: 100%

Q: And the residual activity [13]?
A: 94%

Q: What about the residual activity [14] of the same molecule?
A: 93%

Q: And the residual activity [15]?
A: 71%

Q: What about the residual activity [16] of the same molecule?
A: 100%

Q: What about the residual activity [17] of the same molecule?
A: 100%

Q: And the residual activity [18]?
A: 97%

Q: And the residual activity [19]?
A: 96%

Q: And the residual activity [20]?
A: 100%

Q: What about the residual activity [21] of the same molecule?
A: 44%

Q: And the residual activity [22]?
A: 97%

Q: What about the residual activity [23] of the same molecule?
A: 83%

Q: What about the residual activity [24] of the same molecule?
A: 100%

Q: What about the residual activity [25] of the same molecule?
A: 52%

Q: And the residual activity [26]?
A: 100%

Q: What about the residual activity [27] of the same molecule?
A: 97%

Q: And the residual activity [28]?
A: 100%

Q: And the residual activity [29]?
A: 78%

Q: And the residual activity [30]?
A: 67%

Q: What about the residual activity [31] of the same molecule?
A: 84%

Q: And the residual activity [32]?
A: 66%

Q: What about the residual activity [33] of the same molecule?
A: 87%

Q: What about the inhibition [34] of the same molecule?
A: 17.7%

Q: What about the residual activity [35] of the same molecule?
A: 100%

Q: What about the residual activity [36] of the same molecule?
A: 80%

Q: What about the residual activity [37] of the same molecule?
A: 42%

Q: What about the residual activity [38] of the same molecule?
A: 100%

Q: What about the residual activity [39] of the same molecule?
A: 97%

Q: What about the residual activity [40] of the same molecule?
A: 95%

Q: And the inhibition [41]?
A: -6.96%

Q: And the residual activity [42]?
A: 100%

Q: What about the residual activity [43] of the same molecule?
A: 98%

Q: And the residual activity [44]?
A: 100%

Q: And the inhibition [45]?
A: -0.22%

Q: How did the residual activity [1] turn out when C[C@@H](c1cccc(C#N)c1)n1cc(Cl)cc(C(N)=O)c1=N [(S)-9s] was run?
A: 100%

Q: And the residual activity [2]?
A: 100%

Q: What about the residual activity [3] of the same molecule?
A: 98%

Q: What about the residual activity [4] of the same molecule?
A: 96%

Q: What about the residual activity [5] of the same molecule?
A: 100%

Q: What about the residual activity [6] of the same molecule?
A: 100%

Q: What about the residual activity [7] of the same molecule?
A: 97%

Q: What about the residual activity [8] of the same molecule?
A: 56%

Q: What about the residual activity [9] of the same molecule?
A: 100%

Q: And the residual activity [10]?
A: 96%

Q: What about the residual activity [11] of the same molecule?
A: 96%

Q: And the residual activity [12]?
A: 98%

Q: What about the residual activity [13] of the same molecule?
A: 100%

Q: And the residual activity [14]?
A: 100%

Q: What about the residual activity [15] of the same molecule?
A: 57%

Q: What about the residual activity [16] of the same molecule?
A: 100%

Q: What about the residual activity [17] of the same molecule?
A: 100%

Q: What about the residual activity [18] of the same molecule?
A: 89%

Q: And the residual activity [19]?
A: 74%

Q: And the residual activity [20]?
A: 100%

Q: And the residual activity [21]?
A: 91%

Q: What about the residual activity [22] of the same molecule?
A: 100%

Q: What about the residual activity [23] of the same molecule?
A: 71%

Q: And the residual activity [24]?
A: 100%

Q: And the residual activity [25]?
A: 73%

Q: And the residual activity [26]?
A: 96%

Q: What about the residual activity [27] of the same molecule?
A: 90%

Q: What about the residual activity [28] of the same molecule?
A: 88%

Q: What about the residual activity [29] of the same molecule?
A: 81%

Q: And the residual activity [30]?
A: 72%

Q: What about the residual activity [31] of the same molecule?
A: 93%

Q: What about the residual activity [32] of the same molecule?
A: 80%

Q: And the residual activity [33]?
A: 89%

Q: What about the inhibition [34] of the same molecule?
A: 17.4%

Q: And the residual activity [35]?
A: 100%

Q: And the residual activity [36]?
A: 89%

Q: What about the residual activity [37] of the same molecule?
A: 65%

Q: And the residual activity [38]?
A: 93%

Q: What about the residual activity [39] of the same molecule?
A: 100%

Q: What about the residual activity [40] of the same molecule?
A: 90%

Q: What about the inhibition [41] of the same molecule?
A: -9.05%

Q: What about the residual activity [42] of the same molecule?
A: 85%

Q: And the residual activity [43]?
A: 91%

Q: What about the residual activity [44] of the same molecule?
A: 100%

Q: And the inhibition [45]?
A: 1.2%
